Measured values reported in US9695155B2, “Herbicidal substituted pyrimidinyloxy benzene compounds” (E. I. DU PONT DE NEMOURS AND COMPANY, priority 2013, dated 2017).

Key:
wheat, winter = test: Test C postemergence; format: in vivo, Triticum aestivum; conditions: for Plant response rating (0 to 100), Wheat: postemergence; for Plant response rating, Wheat: Postemergence, scale 0 to 100 (0 no effect, 100 complete control)
Summary of the method: (§1)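 Seeds were sown in loam–sand blend and sprayed preemergence, while plants at 1- to 4-leaf stage (2–18 cm) in peat-based medium received postemergence sprays; test chemicals were formulated in a non-phytotoxic solvent with surfactant. After 13–15 days in a greenhouse, injury was rated visually against controls, 0 (no effect) to 100 (complete control).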

sedge, umbrella = test: Test B flooded paddy test; format: in vivo, Cyperus difformis; conditions: Flood, 250 g ai/ha; 0 to 100 scale where 0 is no effect and 100 is complete control
Summary of the method: (§2)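 Plants at 2-leaf stage; pots flooded to 3 cm above soil and compound applied directly into paddy water, depth held throughout. After 13 to 15 days in greenhouse, visual rating versus controls on 0 (no effect) to 100 (complete control) scale.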

pigweed [1] = test: Test A postemergence; format: in vivo, Amaranthus retroflexus
Summary of the method: (§3)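 Injury scores run from 0, no effect, to 100, complete control, judged by eye against untreated plants roughly 10 days after treatment. Chemicals carried a surfactant in a non-phytotoxic solvent and went onto loam–sand soil preemergence or onto one- to two-leaf seedlings postemergence.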

corn = test: Test C postemergence; format: in vivo, Zea mays; conditions: for Plant response rating (0 to 100), Corn: postemergence; for Plant response rating, Corn: Postemergence, scale 0 to 100 (0 no effect, 100 complete control)
Summary of the method: as §1

waterhemp = test: Test C postemergence; format: in vivo, Amaranthus rudis; conditions: for Plant response rating (0 to 100), Waterhemp: postemergence; for Plant response rating, Waterhemp: Postemergence, scale 0 to 100 (0 no effect, 100 complete control)
Summary of the method: as §1

chickweed = test: Test C postemergence; format: in vivo, Stellaria media; conditions: for Plant response rating (0 to 100), Chickweed: postemergence; for Plant response rating, Chickweed: Postemergence, scale 0 to 100 (0 no effect, 100 complete control)
Summary of the method: as §1

oilseed rape = test: Test C postemergence; format: in vivo, Brassica napus; conditions: for Plant response rating (0 to 100), Oilseed Rape: postemergence; for Plant response rating, Oilseed Rape: Postemergence, scale 0 to 100 (0 no effect, 100 complete control)
Summary of the method: as §1

morningglory = test: Test A postemergence; format: in vivo, Ipomoea spp.
Summary of the method: as §3

pigweed [2] = test: Test A preemergence; format: in vivo, Amaranthus retroflexus
Summary of the method: as §3

johnsongrass = test: Test C postemergence; format: in vivo, Sorghum halepense; conditions: for Plant response rating (0 to 100), Johnsongrass: postemergence; for Plant response rating, Johnsongrass: Postemergence, scale 0 to 100 (0 no effect, 100 complete control)
Summary of the method: as §1

velvetleaf = test: Test A preemergence; format: in vivo, Abutilon theophrasti
Summary of the method: as §3

barnyardgrass [3] = test: Test B flooded paddy test; format: in vivo, Echinochloa crus-galli; conditions: Flood, 250 g ai/ha; 0 to 100 scale where 0 is no effect and 100 is complete control
Summary of the method: as §2

large (Lg) crabgrass = test: Test C postemergence; format: in vivo, Digitaria sanguinalis; conditions: for Plant response rating (0 to 100), Crabgrass, Large: postemergence; for Plant response rating, Crabgrass, Large: Postemergence, scale 0 to 100 (0 no effect, 100 complete control)
Summary of the method: as §1

barnyardgrass [4] = test: Test C postemergence; format: in vivo, Echinochloa crus-galli; conditions: for Plant response rating (0 to 100), Barnyardgrass: postemergence; for Plant response rating, Barnyardgrass: Postemergence, scale 0 to 100 (0 no effect, 100 complete control)
Summary of the method: as §1

Heteranthera limosa = test: Test B flooded paddy test; format: in vivo; conditions: Flood, 250 g ai/ha; 0 to 100 scale where 0 is no effect and 100 is complete control
Summary of the method: as §2

[5] = 125 g ai/ha, 0 to 100 scale where 0 is no effect and 100 is complete control
[6] = 500 g ai/ha, 0 to 100 scale, 0 no effect, 100 complete control
[7] = 500 g ai/ha, 0 to 100 scale, 0 no effect, 100 complete control, approx. 10 days

## N#Cc1cccc(Oc2ncc(Br)cn2)c1-n1cc(Br)cn1 [Compound 57]
wheat, winter; 125 g ai/ha
  Plant response rating (0 to 100), Wheat: 10
wheat, winter; 250 g ai/ha
  Plant response rating (0 to 100), Wheat: 15
wheat, winter; 31 g ai/ha, 13 to 15 days
  Plant response rating, Wheat: 0
wheat, winter; 62 g ai/ha
  Plant response rating, Wheat: 5
sedge, umbrella
  Plant response rating, Sedge, Umbrella: 80
Pigweed [1]; [5]
  Plant response rating, Pigweed: 100
Pigweed [1]; [6]
  Plant response rating, Pigweed: 100
corn; 125 g ai/ha
  Plant response rating (0 to 100), Corn: 20
corn; 250 g ai/ha
  Plant response rating (0 to 100), Corn: 20
corn; 31 g ai/ha, 13 to 15 days
  Plant response rating, Corn: 10
corn; 62 g ai/ha
  Plant response rating, Corn: 15
waterhemp; 125 g ai/ha
  Plant response rating (0 to 100), Waterhemp: 80
waterhemp; 250 g ai/ha
  Plant response rating (0 to 100), Waterhemp: 90
waterhemp; 31 g ai/ha, 13 to 15 days
  Plant response rating, Waterhemp: 75
waterhemp; 62 g ai/ha
  Plant response rating, Waterhemp: 80
chickweed; 125 g ai/ha
  Plant response rating (0 to 100), Chickweed: 80
chickweed; 250 g ai/ha
  Plant response rating (0 to 100), Chickweed: 80
chickweed; 31 g ai/ha, 13 to 15 days
  Plant response rating, Chickweed: 50
chickweed; 62 g ai/ha
  Plant response rating, Chickweed: 50
Oilseed rape; 125 g ai/ha
  Plant response rating (0 to 100), Oilseed Rape: 80
Oilseed rape; 250 g ai/ha
  Plant response rating (0 to 100), Oilseed Rape: 85
Oilseed rape; 31 g ai/ha, 13 to 15 days
  Plant response rating, Oilseed Rape: 30
Oilseed rape; 62 g ai/ha
  Plant response rating, Oilseed Rape: 40
morningglory; [5]
  Plant response rating, Morningglory: 90
morningglory; [6]
  Plant response rating, Morningglory: 80
Pigweed [2]; [5]
  Plant response rating, Pigweed: 100
Pigweed [2]; [7]
  Pigweed plant response rating: 100
johnsongrass; 125 g ai/ha
  Plant response rating (0 to 100), Johnsongrass: 5
johnsongrass; 250 g ai/ha
  Plant response rating (0 to 100), Johnsongrass: 20
johnsongrass; 31 g ai/ha, 13 to 15 days
  Plant response rating, Johnsongrass: 5
johnsongrass; 62 g ai/ha
  Plant response rating, Johnsongrass: 5
velvetleaf; [5]
  Plant response rating, Velvetleaf: 40
velvetleaf; [7]
  Velvetleaf plant response rating: 100
Barnyardgrass [3]
  Plant response rating, Barnyardgrass: 0
Large (Lg) crabgrass; 125 g ai/ha
  Plant response rating (0 to 100), Crabgrass, Large: 10
Large (Lg) crabgrass; 250 g ai/ha
  Plant response rating (0 to 100), Crabgrass, Large: 30
Large (Lg) crabgrass; 31 g ai/ha, 13 to 15 days
  Plant response rating, Crabgrass, Large: 5
Large (Lg) crabgrass; 62 g ai/ha
  Plant response rating, Crabgrass, Large: 5
Barnyardgrass [4]; 125 g ai/ha
  Plant response rating (0 to 100), Barnyardgrass: 10
Barnyardgrass [4]; 250 g ai/ha
  Plant response rating (0 to 100), Barnyardgrass: 15
Barnyardgrass [4]; 31 g ai/ha, 13 to 15 days
  Plant response rating, Barnyardgrass: 5
Barnyardgrass [4]; 62 g ai/ha
  Plant response rating, Barnyardgrass: 10
Heteranthera limosa
  Plant response rating, Ducksalad: 60
